The values that follow come from patent US11780845B2 (Relay Therapeutics, Inc., priority 2019, dated 2023).

One may read the IC50 as the concentration at which inhibition is half-maximal. A lower IC50 goes with higher potency.

Bounds are passed on as bounds.

The target of the test is FGFR2 (Homo sapiens (Human), UniProt P21802). Nature of the test: FGFR2 Biochemical Caliper Assay. As to the method: Compounds of the present invention were also tested in a FGFR2 Biochemical Caliper Assay. Compounds were prepared in 10 mM DMSO solution and serially diluted into 11 concentrations by 3-fold dilution. […] 5 uL of ATP solution (100 uM) was added to start the reaction and the plate was incubated for 90 minutes, then 70 uL of stopping buffer (0.5M EDTA) was added to terminate the reaction. Each well was analyzed using EZ reader.
Sequence of FGFR2 (P21802 22-821): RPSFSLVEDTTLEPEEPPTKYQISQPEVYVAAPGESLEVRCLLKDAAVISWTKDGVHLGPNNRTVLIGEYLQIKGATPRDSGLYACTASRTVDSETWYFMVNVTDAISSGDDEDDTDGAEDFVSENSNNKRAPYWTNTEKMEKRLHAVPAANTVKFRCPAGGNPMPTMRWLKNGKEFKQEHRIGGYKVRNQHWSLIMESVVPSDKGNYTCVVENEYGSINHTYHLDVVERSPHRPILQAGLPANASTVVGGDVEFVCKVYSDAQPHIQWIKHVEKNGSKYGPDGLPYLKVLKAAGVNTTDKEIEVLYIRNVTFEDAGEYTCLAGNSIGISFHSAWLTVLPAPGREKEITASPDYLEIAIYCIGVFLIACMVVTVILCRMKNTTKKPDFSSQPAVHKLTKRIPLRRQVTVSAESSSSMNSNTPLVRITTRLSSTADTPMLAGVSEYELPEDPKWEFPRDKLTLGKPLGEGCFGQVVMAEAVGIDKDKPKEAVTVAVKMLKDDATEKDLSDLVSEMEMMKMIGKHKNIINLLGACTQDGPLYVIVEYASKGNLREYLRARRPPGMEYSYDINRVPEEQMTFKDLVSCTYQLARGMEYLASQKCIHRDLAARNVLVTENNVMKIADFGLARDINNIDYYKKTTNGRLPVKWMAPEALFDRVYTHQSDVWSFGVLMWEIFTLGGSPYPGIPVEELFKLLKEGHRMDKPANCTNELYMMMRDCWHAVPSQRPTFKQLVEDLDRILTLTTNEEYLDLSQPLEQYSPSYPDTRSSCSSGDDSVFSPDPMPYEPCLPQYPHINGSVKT
`CC(Cl)C(=O)Nc1ccc(-c2c(-c3ccc(C(=O)N4CCCC4)cc3)c3c(N)ncnc3n2C)cc1` (stereo not shown) [Example 561] registered an IC50 of 250 to 1000 nM.

On to `C=C(C)C(=O)Nc1ccc(-c2c(-c3ccc(-c4nnc(NC)s4)cc3)c3c(N)ncnc3n2C)cc1` [Example 280], for which the IC50 fell in the range of 100 to 250 nM.

For `C=CC(=O)Nc1ccc(-c2c(-c3ccc(Sc4ncccn4)cc3)c3c(N)ncnc3n2C)cc1` [Example 68], the IC50 is below 100 nM.

`C=C(C)C(=O)Nc1ccc(-c2c(-c3ccc(C(=O)NCC(C)(C)OC)nc3)c3c(N)ncnc3n2C)cc1` [Example 438] yielded an IC50 of 1000 to 100000 nM.

`C=C(C)C(=O)Nc1ccc(-c2c(-c3ccc4c(c3)COC4c3cccc(C)n3)c3c(N)ncnc3n2C)cc1` (stereo not shown) [Example 599]: the IC50 lay in the range of 100 to 250 nM.

`C=C(C)C(=O)Nc1ccc(-c2c(-c3ccc(C(=O)N4CCC(F)CC4)cc3)c3c(N)ncnc3n2C)cc1` [Example 251] registered an IC50 of 250 to 1000 nM.

As for `C=C(C)C(=O)Nc1ccc(-c2c(-c3ccc(C(=O)N(CCN(C)C)CC(F)(F)F)cc3)c3c(N)ncnc3n2C)cc1` [Example 454], the IC50 was in the range of 250 to 1000 nM.

Turning to `C=C(C)C(=O)Nc1ccc(-c2c(-c3ccc(-n4cccn4)nc3)c3c(N)ncnc3n2C)cc1` [Example 192], the IC50 was in the range of 1000 to 100000 nM.

As to `C=CC(=O)N1CCC(N2CC(c3c(-c4ccc(Oc5cccc(C)n5)c(OC)c4)c4c(N)ncnc4n3C)C2)CC1` [Example 658], the IC50 lay in the range of 1000 to 100000 nM.

`C=C(C)C(=O)Nc1ccc(-c2c(-c3ccc(Oc4ccc(C)cn4)c(O)c3)c3c(N)ncnc3n2C)cc1` [Example 108]: the IC50 lay in the range of 1000 to 100000 nM.

In turn, `C=CC(=O)Nc1ccc(-c2c(-c3ccc(Oc4ncccn4)c(CO)c3)c3c(N)ncnc3n2C)cc1` [Example 71] yielded an IC50 of 250 to 1000 nM.

For the compound `C=C(C)C(=O)Nc1ccc(-c2c(-c3ccc(N4CCCC4=O)nc3)c3c(N)ncnc3n2C)cc1` [Example 208], the IC50 lay within 1000 to 100000 nM.

The compound `C=C(C)C(=O)Nc1ccc(-c2c(-c3ccc4c(c3)CCC4C(=O)N(C)C)c3c(N)ncnc3n2C)cc1` (stereo not shown) [Example 191] displayed an IC50 of 1000 to 100000 nM.

As for `CC#CC(=O)Nc1ccc(-c2c(-c3ccc(Oc4ncccn4)cc3)c3c(N)ncnc3n2C)cc1` [Example 84], the IC50 is below 100 nM.

Regarding `C=C(C)C(=O)Nc1ccc(-c2c(-c3ccc(S(=O)(=O)N4CCCC4)cc3)c3c(N)ncnc3n2C)cc1` [Example 85], the half-maximal inhibitory concentration (IC50) lay within 100 to 250 nM.

Turning to `C=C(C)C(=O)Nc1ccc(-c2c(-c3ccc(Oc4ncc(N(C)C)cn4)c(F)c3)c3c(N)ncnc3n2C)cc1` [Example 455], the IC50 fell in the range of 250 to 1000 nM.

With `C=C(C)C(=O)Nc1ccc(-c2c(-c3ccc(C(=O)N4CCCC4)cc3)c3c(N)ncnc3n2C)c(C2CC2)c1` [Example 478], the IC50 is 100 to 250 nM.

The compound `C=C(C)C(=O)Nc1ccc(-c2c(-c3ccc(OCC4CCCC4)cc3)c3c(N)ncnc3n2C)cc1` [Example 253] yielded an IC50 of 250 to 1000 nM.

`C=C(C)C(=O)Nc1ccc(-c2c(-c3ccc(C(=O)N4CCCC4)cc3C)c3c(N)ncnc3n2C)cc1` [Example 597]: the IC50 is 1000 to 100000 nM.

Take `C=CC(=O)Nc1ccc(-c2c(-c3ccc(N(C)c4ncccn4)cc3)c3c(N)ncnc3n2C)cc1` [Example 61]: the IC50 was below 100 nM.

On to `C=C(C)C(=O)Nc1ccc(-c2c(-c3ccc(C(=O)N(C)CC4CCCO4)cc3)c3c(N)ncnc3n2C)cc1` (stereo not shown) [Example 269], for which the IC50 is 1000 to 100000 nM.

The compound `C=C(C)C(=O)Nc1ccc(-c2c(-c3ccc(C(=O)NC4CC(O)C4)cc3)c3c(N)ncnc3n2C)cc1` (stereo not shown) [Example 328] yielded an IC50 of 250 to 1000 nM.

`C=C(C)C(=O)Nc1ccc(-c2c(-c3ccc4[nH]c(C(=O)N(C)C)cc4c3)c3c(N)ncnc3n2C)cc1` [Example 205] gave an IC50 of 1000 to 100000 nM.

Take `C=C(C)C(=O)Nc1ccc(-c2c(-c3ccc4c(c3)C(C)N(C)C4=O)c3c(N)ncnc3n2C)cc1` (stereo not shown) [Example 287]: the IC50 is 1000 to 100000 nM.

The compound `C=C(C)C(=O)Nc1ccc(-c2c(-c3ccc(-n4cncn4)nc3)c3c(N)ncnc3n2C)cc1` [Example 184] displayed an IC50 of 1000 to 100000 nM.

In the case of `C=C(C)C(=O)Nc1ccc(-c2c(-c3ccc(C(=O)NCC4CCC4)c(C(C)=O)c3)c3c(N)ncnc3n2C)cc1` [Example 457], the IC50 was in the range of 100 to 250 nM.

In turn, `C=CC(=O)Nc1ccc(-c2c(-c3ccc(Nc4ncccn4)c(OC)c3)c3c(N)ncnc3n2C)cc1` [Example 56] yielded an IC50 below 100 nM.

`C=C(C)C(=O)Nc1ccc(-c2c(-c3ccc(C(=O)N(C)C4CCN(C)C4=O)cc3)c3c(N)ncnc3n2C)cc1` (stereo not shown) [Example 390] displayed an IC50 of 1000 to 100000 nM.

`C=CC(=O)N[C@H]1CC[C@@H](c2c(-c3ccc(Oc4cccc(C)n4)c(OC)c3)c3c(N)ncnc3n2C)CC1` [Example 624] showed an IC50 of 1000 to 100000 nM.

As to `C=C(C)C(=O)Nc1ccc(-c2c(-c3ccc(C(O)c4ncccn4)c(OC)c3)c3c(N)ncnc3n2C)cc1` (stereo not shown) [Example 93], the IC50 was in the range of 250 to 1000 nM.

`C=C(C)C(=O)Nc1ccc(-c2c(-c3cnc(Oc4cccc(C)n4)nc3)c3c(N)ncnc3n2C)cc1` [Example 483] gave an IC50 of 1000 to 100000 nM.

With `C=C(C)C(=O)Nc1ccc(-c2c(-c3ccc(Oc4ncc(CO)cn4)c(OC)c3)c3c(N)ncnc3n2C)cc1` [Example 65], the 50% inhibitory concentration (IC50) was in the range of 1000 to 100000 nM.

`C=CC(=O)Nc1ccc(-c2c(-c3ccc(Nc4ncccn4)cc3)c3c(N)ncnc3n2C)cc1` [Example 58] had an IC50 below 100 nM.

In turn, `C=C(C)C(=O)Nc1ccc(-c2c(-c3ccc(C(=O)NCCO)cc3)c3c(N)ncnc3n2C)cc1` [Example 322] yielded an IC50 of 250 to 1000 nM.

As to `C=CC(=O)Nc1ccc(-c2c(-c3ccc(C(=O)c4ccccc4C)c(OC)c3)c3c(N)ncnc3n2C)cc1` [Example 81], the IC50 is below 100 nM.

For the compound `C=C(C)C(=O)Nc1ccc(-c2c(-c3ccc(C(=O)N4CC5CC4(CO)C5)cc3)c3c(N)ncnc3n2C)cc1` [Example 547], the IC50 was 250 to 1000 nM.

In the case of `C=C(C)C(=O)Nc1ccc(-c2c(-c3ccc(C(=O)N4CC5CC4(C)C5)cc3)c3c(N)ncnc3n2C)cc1` [Example 548], the IC50 was below 100 nM.

`C=C(C)C(=O)Nc1ccc(-c2c(-c3ccc(Oc4ncc(Cl)cn4)c(F)c3)c3c(N)ncnc3n2C)cc1` [Example 115] registered an IC50 of 250 to 1000 nM.

On to `C=C(C)C(=O)Nc1ccc(-c2c(-c3ccc(CC(=O)N(C)C)c(F)c3)c3c(N)ncnc3n2C)cc1` [Example 173], for which the IC50 lay within 1000 to 100000 nM.

The compound `C=C(C)C(=O)Nc1ccc(-c2c(-c3ccc(Oc4nccc(C)n4)c(F)c3)c3c(N)ncnc3n2C)c(CN(C)C)c1` [Example 555] came in with an IC50 below 100 nM.

On to `C=C(C)C(=O)Nc1ccc(-c2c(-c3cnn(C4CN(C)C4)c3)c3c(N)ncnc3n2C)cc1` [Example 163], for which the IC50 was in the range of 1000 to 100000 nM.

`Cn1c(-c2ccc(NC(=O)C3=CCCC3)cc2)c(-c2ccc(C(=O)N3CCCC3)cc2)c2c(N)ncnc21` [Example 523] had an IC50 of 1000 to 100000 nM.

The compound `C=C(C)C(=O)Nc1ccc(-c2c(C3=CCN(C(=O)NC)CC3)c3c(N)ncnc3n2C)cc1` [Example 268] returned an IC50 of 1000 to 100000 nM.

In the case of `C=C(C)C(=O)Nc1ccc(-c2c(-c3ccc(Oc4ccc(Cl)cn4)c(O)c3)c3c(N)ncnc3n2C)cc1` [Example 119], the IC50 fell in the range of 1000 to 100000 nM.

Compound `C=C(C)C(=O)Nc1ccc(-c2c(-c3ccc(C(=O)N(C)CC4COC4)cc3)c3c(N)ncnc3n2C)c(F)c1` [Example 489] showed an IC50 of 250 to 1000 nM.

Turning to `C=CC(=O)N1CCC(n2cc(-c3c(-c4ccccc4OC)c4c(N)ncnc4n3C)cn2)CC1` [Example 611], the IC50 was 1000 to 100000 nM.
